Test results from US6395896B2, “Pyridazine derivatives, manufacturing method and related composition” (Shiseido Co., Ltd., priority 1999, dated 2002).

Columns and labels:
[1] = Drug stabilization effect (photostabilizer, sunlight exposure); design: key to Sunlight exposure (80 MJ) Appearance: A: No change; B: No almost change; C: Yes change; conditions: photostabilizer 0.05, amounts wt %
Procedure: Next, the photo stabilization effect and changes in appearance in drug compositions were studied according to the following evaluation formulation.
Each test sample was prepared. Appearance changes of the samples exposed to sunlight (80 MJ) was observed (visual evaluation). Also, residual yield was measured by liquid chromatography.

[2] = Perfume stabilization effect (photostabilizer, sunlight exposure, judgement by perfumier); design: key to Sunlight exposure (80 MJ) Smell evaluation / Sunlight exposure (80 MJ) evaluation: A: No change; B: No almost change; C: Yes change
Procedure: Next, the photostabilization effect for each perfume was studied by the following evaluation formulation.
Each test sample was prepared. Change of smell of sample exposed to sunlight (80 MJ) was observed (judgement by perfumier).

[3] = Colorant stabilization effect (photostabilizer, sunlight exposure); design: key to Sunlight exposure (80 MJ) Appearance: A: No change; B: No almost change; C: Yes change; key to Sunlight exposure (80 MJ) ΔE: ΔE color difference (Lab) vs. color before sunlight exposure; conditions: photostabilizer 0.05 wt %
Procedure: First of all, the photostabilization effect and appearance change of a composition in each pigment were studied by the following evaluation formulation.
Each test sample was prepared. Observation of appearance change (visual evaluation) and measurement of color difference (ΔE) were carried out in samples exposed to sunlight exposure (around 80 MJ).
Color difference was measured by Lab coordinate system with spectrophotometer. Color difference was calculated on the basis of the color before sunlight exposure. Namely, from measured value (L1,a1,b1) before sunlight exposure, color difference (ΔE) was calculated by following formula.

[4] = drug 2-o-α-α-glucopyranosyl-L-ascorbic acid 2.0
[5] = drug Dibutylhydroxytoluene 0.01
[6] = drug Dipotassium glycyrrhizinate 0.05
[7] = drug L-ascorbic acid 2-(dl-α-tocopheryl hydrogen phosphate) potassium salt 0.01
[8] = Red No. 106 0.00001 wt % + Yellow No. 5 0.0001 wt %
[9] = Red No. 106 0.00001 wt % + Yellow No. 203 0.0001 wt %
[10] = Red No. 213 0.00001 wt % + Blue No. 1 0.00001 wt %
[11] = Red No. 227 0.0001 wt % + Yellow No. 5 0.0001 wt %
[12] = Red No. 227 0.0001 wt % + Yellow No. 203 0.0001 wt %
[13] = Red No. 401 0.0001 wt % + Blue No. 1 0.00001 wt %
[14] = Red No. 401 0.0001 wt % + Green No. 3 0.00001 wt %
[15] = Yellow No. 203 0.0001 wt % + Yellow No. 5 0.0001 wt %

## COc1ccc(C(=O)c2ccccc2)c(O)c1 [2-Hydroxy-4-methoxybenzophenone, reference compound]
[1]; [4]
  Sunlight exposure (80 MJ) Appearance: B
  Sunlight exposure (80 MJ) Residual yield [%]: 97.3%
[1]; [5]
  Sunlight exposure (80 MJ) Appearance: B
  Sunlight exposure (80 MJ) Residual yield [%]: 95.2%
[1]; [6]
  Sunlight exposure (80 MJ) Appearance: B
  Sunlight exposure (80 MJ) Residual yield [%]: 97.8%
[1]; [7]
  Sunlight exposure (80 MJ) Appearance: B
  Sunlight exposure (80 MJ) Residual yield [%]: 95.4%
[1]; drug Salicylic acid 0.1
  Sunlight exposure (80 MJ) Appearance: B
  Sunlight exposure (80 MJ) Residual yield [%]: 98.2%
[2]; Base perfume Fruity 0.03 wt %, photostabilizer 0.1 wt %
  Sunlight exposure (80 MJ) Smell evaluation: B
[2]; Base perfume Muguet 0.03 wt %, photostabilizer 0.05 wt %
  Sunlight exposure (80 MJ) Smell evaluation: B
[2]; Base perfume Rose 0.03 wt %, photostabilizer 0.05 wt %
  Sunlight exposure (80 MJ) Smell evaluation: B
[2]; Base perfume Spicy 0.03 wt %, photostabilizer 0.2 wt %
  Sunlight exposure (80 MJ) Smell evaluation: B
[2]; Base perfume Woody 0.03 wt %, photostabilizer 0.1 wt %
  Sunlight exposure (80 MJ) Smell evaluation: B
[2]; Natural perfume Jasmine oil 0.03 wt %, photostabilizer 0.05 wt %
  Sunlight exposure (80 MJ) Smell evaluation: B
[2]; Natural perfume Lavender oil 0.03 wt %, photostabilizer 0.1 wt %
  Sunlight exposure (80 MJ) Smell evaluation: B
[2]; Natural perfume Neroli oil 0.03 wt %, photostabilizer 0.1 wt %
  Sunlight exposure (80 MJ) Smell evaluation: B
[2]; Natural perfume Rose oil 0.03 wt %, photostabilizer 0.05 wt %
  Sunlight exposure (80 MJ) Smell evaluation: B
[2]; Natural perfume Ylang ylang oil 0.03 wt %, photostabilizer 0.2 wt %
  Sunlight exposure (80 MJ) Smell evaluation: B
[2]; Synthetic perfume Citral 0.03 wt %, photostabilizer 0.1 wt %
  Sunlight exposure (80 MJ) Smell evaluation: B
[2]; Synthetic perfume Limonene 0.03 wt %, photostabilizer 0.05 wt %
  Sunlight exposure (80 MJ) Smell evaluation: B
[2]; Synthetic perfume Linalool 0.03 wt %, photostabilizer 0.05 wt %
  Sunlight exposure (80 MJ) Smell evaluation: B
[2]; Synthetic perfume Linalyl acetate 0.03 wt %, photostabilizer 0.1 wt %
  Sunlight exposure (80 MJ) Smell evaluation: B
[2]; Synthetic perfume Rose oxide 0.03 wt %, photostabilizer 0.2 wt %
  Sunlight exposure (80 MJ) Smell evaluation: B
[3]; Blue No. 1 0.0001 wt %
  Sunlight exposure (80 MJ) Appearance: B
  Sunlight exposure (80 MJ) ΔE: 1.76
[3]; Green No. 3 0.0001 wt %
  Sunlight exposure (80 MJ) Appearance: B
  Sunlight exposure (80 MJ) ΔE: 0.75
[3]; [8]
  Sunlight exposure (80 MJ) Appearance: B
  Sunlight exposure (80 MJ) ΔE: 1.18
[3]; [9]
  Sunlight exposure (80 MJ) Appearance: B
  Sunlight exposure (80 MJ) ΔE: 1.11
[3]; Red No. 106 0.0001 wt %
  Sunlight exposure (80 MJ) Appearance: B
  Sunlight exposure (80 MJ) ΔE: 1.01
[3]; [10]
  Sunlight exposure (80 MJ) Appearance: B
  Sunlight exposure (80 MJ) ΔE: 1.26
[3]; Red No. 213 0.0001 wt %
  Sunlight exposure (80 MJ) Appearance: B
  Sunlight exposure (80 MJ) ΔE: 1.34
[3]; [11]
  Sunlight exposure (80 MJ) Appearance: B
  Sunlight exposure (80 MJ) ΔE: 0.88
[3]; [12]
  Sunlight exposure (80 MJ) Appearance: B
  Sunlight exposure (80 MJ) ΔE: 1.05
[3]; Red No. 227 0.0001 wt %
  Sunlight exposure (80 MJ) Appearance: B
  Sunlight exposure (80 MJ) ΔE: 0.71
[3]; [13]
  Sunlight exposure (80 MJ) Appearance: B
  Sunlight exposure (80 MJ) ΔE: 0.82
[3]; [14]
  Sunlight exposure (80 MJ) Appearance: B
  Sunlight exposure (80 MJ) ΔE: 1.06
[3]; Red No. 401 0.001 wt %
  Sunlight exposure (80 MJ) Appearance: B
  Sunlight exposure (80 MJ) ΔE: 1.18
[3]; Yellow No. 5 0.001 wt %
  Sunlight exposure (80 MJ) Appearance: B
  Sunlight exposure (80 MJ) ΔE: 0.82
[3]; [15]
  Sunlight exposure (80 MJ) Appearance: A
  Sunlight exposure (80 MJ) ΔE: 0.52
[3]; Yellow No. 203 0.001 wt %
  Sunlight exposure (80 MJ) Appearance: B
  Sunlight exposure (80 MJ) ΔE: 0.88
